Assay results as given in patent US10752612B2, “PLK4 inhibitors” (LUDWIG INSTITUTE FOR CANCER RESEARCH LTD, priority 2015, dated 2020).
Like-named read-outs stand apart in the source and are kept apart here.

Tests used:
NIH/3T3 cells = experiment: Proliferation assay, NIH/3T3; format: cell-based, mouse
Description: (§1) Proliferation assays. For each condition, cells were seeded in triplicate into 6-well plates at 50,000 cells/well. Compounds were added at the indicated concentrations. At 24-hour intervals, 3 wells were harvested per condition. Cell counting was performed using a TC10 automated cell counter (Bio-Rad). Results are from 3 independent experiments.

RPE1 cells = experiment: Passaging assay and flow cytometry, RPE1; format: cell-based, human
Description: Passaging assays. Cells were seeded into 10 cm tissue culture plates at 150,000 (HeLa, NIH/3T3 and RPE1) or 200,000 cells/plate (primary fibroblasts). Compounds were added at the indicated concentrations. At 4-day intervals, cells were harvested, counted using a TC10 cell counter, and re-seeded into new plates at the densities above. Results are from 2 independent experiments.
Flow cytometry. Cells were seeded into 15 cm tissue culture plates such that each plate was 50-80% confluent at the time of harvesting. Cells were de-adhered by trypsinization and pelleted in 15 ml tubes by centrifugation. Each pellet was resuspended in 0.3 mL PBS, and 0.7 mL ice-cold 100% ethanol was added to the tube while gently vortexing. Fixed cells were stored at 4° C. for up to 2 weeks. For DNA content analysis, fixed cells were pelleted, washed twice with PBS, and resuspended in 0.5 mL PBS+2% BSA and Alexa488-conjugated anti-p-H3(Ser10) antibody. Samples were incubated for 1 hour at 4° C., then washed twice with PBS+2% BSA. Pellets were resuspended in 1 mL PBS+2% BSA, 10 μg/ml propidium iodide (Sigma-Aldrich), 500 µg/ml RNAse A (Thermo Scientific). Samples were incubated at 37° C. for 30 minutes, then transferred to 12×75 mm tubes for analysis. Data were acquired using FACSDiva software on a LSR II flow cytometer (BD Biosciences). 50,000 cells were analyzed per condition. Cell cycle fitting was performed using ModFit LT (Verity Software House).

ROS/ROS1 = ROS/ROS1 (Homo sapiens, UniProt P08922); experiment: Radiometric kinase assay, off-target ROS/ROS1; format: biochemical; conditions: off-target from DiscoveRx kinome profiling
Chain of ROS/ROS1 (P08922 28-2347): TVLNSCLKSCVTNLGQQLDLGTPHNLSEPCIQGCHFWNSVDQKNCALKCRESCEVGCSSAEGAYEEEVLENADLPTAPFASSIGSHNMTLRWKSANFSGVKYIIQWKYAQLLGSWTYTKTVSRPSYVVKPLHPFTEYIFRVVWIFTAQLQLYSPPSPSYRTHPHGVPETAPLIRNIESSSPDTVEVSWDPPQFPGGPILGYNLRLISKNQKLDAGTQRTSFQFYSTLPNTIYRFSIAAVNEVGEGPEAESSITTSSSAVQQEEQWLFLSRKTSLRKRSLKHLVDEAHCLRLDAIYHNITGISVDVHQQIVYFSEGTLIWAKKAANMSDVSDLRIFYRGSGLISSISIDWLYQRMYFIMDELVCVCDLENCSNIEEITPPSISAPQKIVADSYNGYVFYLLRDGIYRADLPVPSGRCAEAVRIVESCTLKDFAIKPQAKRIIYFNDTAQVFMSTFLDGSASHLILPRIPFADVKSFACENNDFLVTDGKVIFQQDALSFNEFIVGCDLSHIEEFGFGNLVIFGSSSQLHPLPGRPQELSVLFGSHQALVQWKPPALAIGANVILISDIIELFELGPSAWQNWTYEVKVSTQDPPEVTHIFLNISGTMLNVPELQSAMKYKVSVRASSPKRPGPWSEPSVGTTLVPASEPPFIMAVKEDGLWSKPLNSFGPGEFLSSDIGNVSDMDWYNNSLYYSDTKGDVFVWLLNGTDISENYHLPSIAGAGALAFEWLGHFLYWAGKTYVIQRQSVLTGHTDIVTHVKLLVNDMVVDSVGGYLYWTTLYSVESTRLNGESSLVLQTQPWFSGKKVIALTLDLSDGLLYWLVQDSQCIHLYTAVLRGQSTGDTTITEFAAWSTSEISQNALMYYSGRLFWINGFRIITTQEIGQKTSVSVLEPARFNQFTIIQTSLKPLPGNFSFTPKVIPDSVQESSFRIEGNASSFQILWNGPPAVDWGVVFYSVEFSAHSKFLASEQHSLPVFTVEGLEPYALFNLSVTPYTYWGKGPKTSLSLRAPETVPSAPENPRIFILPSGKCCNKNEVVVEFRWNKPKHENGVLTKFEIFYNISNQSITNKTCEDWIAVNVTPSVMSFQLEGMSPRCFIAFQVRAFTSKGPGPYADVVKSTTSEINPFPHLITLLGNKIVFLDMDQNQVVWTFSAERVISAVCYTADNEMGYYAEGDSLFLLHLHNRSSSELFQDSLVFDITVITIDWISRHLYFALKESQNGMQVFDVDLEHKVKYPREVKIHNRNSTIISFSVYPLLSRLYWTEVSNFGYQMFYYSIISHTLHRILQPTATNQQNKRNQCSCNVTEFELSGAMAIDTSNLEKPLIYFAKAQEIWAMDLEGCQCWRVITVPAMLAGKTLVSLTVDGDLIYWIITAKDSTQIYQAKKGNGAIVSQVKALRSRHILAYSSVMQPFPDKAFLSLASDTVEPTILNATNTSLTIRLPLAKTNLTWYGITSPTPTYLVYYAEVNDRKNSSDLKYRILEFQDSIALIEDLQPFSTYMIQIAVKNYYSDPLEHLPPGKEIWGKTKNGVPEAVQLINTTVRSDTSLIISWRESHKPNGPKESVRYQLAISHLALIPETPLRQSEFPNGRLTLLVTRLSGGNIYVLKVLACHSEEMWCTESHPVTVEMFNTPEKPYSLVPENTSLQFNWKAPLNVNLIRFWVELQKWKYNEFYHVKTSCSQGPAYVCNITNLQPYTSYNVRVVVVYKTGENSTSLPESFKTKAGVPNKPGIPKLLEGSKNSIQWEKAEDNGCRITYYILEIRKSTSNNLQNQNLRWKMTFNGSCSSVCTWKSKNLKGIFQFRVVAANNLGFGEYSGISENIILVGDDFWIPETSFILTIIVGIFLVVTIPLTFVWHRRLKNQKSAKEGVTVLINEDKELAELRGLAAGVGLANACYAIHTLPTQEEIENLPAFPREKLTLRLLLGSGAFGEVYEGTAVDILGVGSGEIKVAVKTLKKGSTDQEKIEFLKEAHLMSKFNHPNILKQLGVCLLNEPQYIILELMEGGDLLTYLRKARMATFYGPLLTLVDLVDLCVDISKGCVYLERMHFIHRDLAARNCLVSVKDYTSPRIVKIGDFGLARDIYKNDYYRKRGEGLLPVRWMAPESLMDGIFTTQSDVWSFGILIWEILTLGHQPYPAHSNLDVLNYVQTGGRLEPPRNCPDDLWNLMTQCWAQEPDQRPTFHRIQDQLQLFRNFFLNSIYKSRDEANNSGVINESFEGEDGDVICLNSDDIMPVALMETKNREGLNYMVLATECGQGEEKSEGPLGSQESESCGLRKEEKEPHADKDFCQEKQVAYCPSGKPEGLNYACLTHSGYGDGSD
Description: (§2) Aurora B and other radiometric kinase assays were performed by Reaction Biology (Malvern, Pa.). Kinome profiling of centrinone and centrinone-B was performed by DiscoveRx (San Diego, Calif.).

[1] = system: wild-type Plk4-GFP NIH/3T3 cells; experiment: Centriole overduplication assay, NIH/3T3 overexpressing wild-type Plk4-GFP; format: cell-based, mouse
Description: For generation of Plk4-GFP inducible NIH/3T3 cells, a mouse Plk4 cDNA C-terminally fused to eGFP was cloned into the lentiviral vector pLVX-TRE3G (Clontech). The G95L point mutation was generated by Quikchange mutagenesis (Agilent Technologies). Plasmids were transfected into HEK-293T cells using the Lenti-X HTX packaging system (Clontech), following manufacturer's instructions. 48 hours after transfection, virus-containing culture supernatant was harvested and added to the growth medium of Tet-On 3G NIH/3T3 cells (Clontech)+8 μg/ml polybrene (EMD Millipore).
Centriole overduplication assay. Tet-On 3G NIH/3T3 cells (Clontech) stably transduced with GFP, Plk4-GFP or Plk4(G95L)-GFP were seeded onto coverslips in a 12-well plate at 30,000 cells/well. Transgene expression was induced with 1 μg/ml doxycycline. […] Treated cells were incubated for 40 hours, and then washed with PBS and fixed in 100% methanol (−20° C., 5 minutes). Fixed samples were stained for γ-tubulin and Cep192, and mounted onto slides. Image acquisition and deconvolution were performed on the DeltaVision system equipped with a 100×1.3 NA U-PlanApo objective. Subsequent image processing was performed in ImageJ.

human Aurora A = molecular target: T1, human Aurora A (Homo sapiens, UniProt O14965); experiment: Aurora A kinase assay (ADP-Glo); format: biochemical
T1 construct: purchased Millipore
T1 sequence (O14965 1-403): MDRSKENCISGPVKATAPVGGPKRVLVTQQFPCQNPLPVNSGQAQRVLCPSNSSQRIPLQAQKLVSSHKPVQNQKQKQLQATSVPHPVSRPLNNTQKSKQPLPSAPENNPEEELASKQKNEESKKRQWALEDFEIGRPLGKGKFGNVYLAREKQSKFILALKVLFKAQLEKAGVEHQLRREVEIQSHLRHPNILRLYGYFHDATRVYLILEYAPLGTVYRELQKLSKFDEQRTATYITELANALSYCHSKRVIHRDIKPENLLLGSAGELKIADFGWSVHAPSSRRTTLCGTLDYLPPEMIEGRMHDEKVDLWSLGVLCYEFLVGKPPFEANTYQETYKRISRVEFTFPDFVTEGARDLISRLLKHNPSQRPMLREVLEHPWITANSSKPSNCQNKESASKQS
Description: LRRASLG)+inhibitors arrayed in dose response (added as described above). […] Detection, measurement and data analysis were performed as described above.

panel of 19 cell lines = experiment: Proliferation after centrosome depletion, panel of cell lines; format: cell-based; conditions: panel of 19 cell lines (Table 6)
Description: as §1

SRPK1 = molecular target: T2, SRPK1 (Homo sapiens, UniProt Q96SB4); experiment: Radiometric kinase assay, off-target SRPK1; format: biochemical; conditions: off-target from DiscoveRx kinome profiling
T2 construct: Reaction Biology (Malvern, Pa.), contract assay
T2 sequence (Q96SB4 whole entry): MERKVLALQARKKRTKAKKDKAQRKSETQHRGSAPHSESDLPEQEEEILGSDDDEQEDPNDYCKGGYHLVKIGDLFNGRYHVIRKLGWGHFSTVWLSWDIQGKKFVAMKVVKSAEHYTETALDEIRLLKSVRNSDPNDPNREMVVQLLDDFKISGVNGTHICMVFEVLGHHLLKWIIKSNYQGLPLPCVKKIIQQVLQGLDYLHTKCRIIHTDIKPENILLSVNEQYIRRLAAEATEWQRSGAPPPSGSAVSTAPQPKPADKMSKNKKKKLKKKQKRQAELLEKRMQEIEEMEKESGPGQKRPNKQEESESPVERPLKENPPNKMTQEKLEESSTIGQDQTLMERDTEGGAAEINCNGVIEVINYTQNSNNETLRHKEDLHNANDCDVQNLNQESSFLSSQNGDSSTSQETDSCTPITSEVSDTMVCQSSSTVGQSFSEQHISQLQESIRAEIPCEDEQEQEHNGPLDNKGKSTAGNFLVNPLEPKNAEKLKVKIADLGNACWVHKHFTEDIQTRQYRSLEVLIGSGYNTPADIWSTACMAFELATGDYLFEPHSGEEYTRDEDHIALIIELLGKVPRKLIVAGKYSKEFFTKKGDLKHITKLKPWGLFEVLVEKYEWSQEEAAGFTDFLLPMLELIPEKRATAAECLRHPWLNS
Description: as §2

[2] = system: full-length mouse Plk4-YFP; experiment: Plk4 stabilization assay, Plk4-YFP DLD-1 cells; format: cell-based, human; conditions: 25 nM or 100 nM, 24 hours
Description: Plk4 stabilization assay. Expression was induced in Plk4-YFP DLD-1 cells using 1 μg/ml doxycycline. At the same time, cells were treated with the indicated concentrations of compounds. Cells were incubated for 24 hours before harvesting for Western blotting (see below).
Western blotting. […] Cell extracts were stored at −80° C. until use.

HeLa cells = experiment: Proliferation assay, HeLa; format: cell-based, human
Description: as §1

LRRK2 = molecular target: T3, LRRK2 (Homo sapiens, UniProt Q5S007); experiment: Radiometric kinase assay, off-target LRRK2; format: biochemical; conditions: off-target from DiscoveRx kinome profiling
T3 construct: Reaction Biology (Malvern, Pa.), contract assay
Description: as §2

[3] = system: Xenopus multiciliated cells; experiment: Multiciliation assay in Xenopus embryos; format: in vivo
Description: Multiciliation assay in Xenopus embryos. Xenopus embryos were obtained by in vitro fertilization using standard protocols (49) approved by the Northwestern University Institutional Animal Care and Use Committee. Fertilized Xenopus embryos were injected with mRNA encoding the centriole marker Centrin4-GFP (333 pg/embryo) and a Dexamethasone-inducible Multicilin (hGR 3′MCI; 160 pg/embryo) (50, 51). […] Embryos were treated for 13 hours at room temperature, fixed in 4% paraformaldehyde and treated with the actin stain phalloidin. Confocal image stacks were collected using a Nikon AIR microscope and centriole numbers were manually quantified in Nikon Elements software. For each condition, centriole numbers were quantified from approximately 100 cells from at least 3 embryos.

In the case of COc1c(Nc2cc(C)[nH]n2)nc(Sc2ccc(S(=O)(=O)Cc3cccc([N+](=O)[O-])c3F)cc2F)nc1N1CCOCC1 [Centrinone, 2-((2-fluoro-4-((2-fluoro-3-nitrobenzyl)sulfonyl)phenyl)thio)-5-methoxy-N-(5-methyl-1H-pyrazol-3-yl)-6-morpholinopyrimidin-4-amine], the proliferation versus controls (NIH/3T3 cells; NIH/3T3, first two days after addition) is reported as “identical to controls”, the “cell death per generation explaining reduced proliferation rate” value (NIH/3T3 cells; centrosome-less NIH/3T3, theoretical curves versus measurements) is reported as 15% and the “cell cycle after centrosome depletion” value (RPE1 cells; RPE1, 12-day passaging assay and flow cytometry) is reported as “cell cycle arrest in G1”. For the same molecule, the proliferation after washout (RPE1 cells; RPE1, addition Day 0, washout Day 8) was “did not”, the Ki (ROS/ROS1) was 2.77 nM and the centriole amplification [1] was “blocked centriole amplification”. The Ki (human Aurora A) was 171 nM, the proliferation after treatment (panel of 19 cell lines) was “continued to proliferate” and the Ki (SRPK1) was over 150 nM. For the same molecule, the Plk4-YFP stabilization [2] was “more substantial stabilization”, the proliferation versus controls (HeLa cells; HeLa, first two days after addition) was “identical to controls” and the “cell death per generation explaining reduced proliferation rate” value (HeLa cells; centrosome-less HeLa, theoretical curves versus measurements) was 25%. For the same molecule, the Ki (LRRK2) was 2.08 nM, the “centriole number in multiciliated cells” value [3] was “dramatically reduced centriole numbers” and the “centriole number in multiciliated cells” value ([3]; listed as centrinone) was “reduced centriole number”.
